Measured values as given in patent publication US20200129523A1, “SHIP INHIBITION TO INDUCE EXPRESSION OF GRANULOCYTE COLONY STIMULATING FACTOR IN A SUBJECT” (THE RESEARCH FOUNDATION FOR THE STATE UNIVERSITY OF NEW YORK, priority 2014, published 2020).
“Also recorded” adds a separate entry of the source.

Key:
[1] = system: immunoregulatory cells; assay: Preliminary oral K118 study: immunoregulatory cells; format: in vivo, wt C57BL/6 mice; conditions: K118 orally 10 mg/kg in water
Method: K118 was administered in water, and in wt C57BL/6 mice.

[2] = molecular target: T1, SHIP1 (Homo sapiens, UniProt Q92835); assay: Fluorescence Polarization (FP) assay for SHIP1 enzymatic activity; format: biochemical; conditions: in vitro, hydrochloride
T1 sequence (Q92835 1-1189): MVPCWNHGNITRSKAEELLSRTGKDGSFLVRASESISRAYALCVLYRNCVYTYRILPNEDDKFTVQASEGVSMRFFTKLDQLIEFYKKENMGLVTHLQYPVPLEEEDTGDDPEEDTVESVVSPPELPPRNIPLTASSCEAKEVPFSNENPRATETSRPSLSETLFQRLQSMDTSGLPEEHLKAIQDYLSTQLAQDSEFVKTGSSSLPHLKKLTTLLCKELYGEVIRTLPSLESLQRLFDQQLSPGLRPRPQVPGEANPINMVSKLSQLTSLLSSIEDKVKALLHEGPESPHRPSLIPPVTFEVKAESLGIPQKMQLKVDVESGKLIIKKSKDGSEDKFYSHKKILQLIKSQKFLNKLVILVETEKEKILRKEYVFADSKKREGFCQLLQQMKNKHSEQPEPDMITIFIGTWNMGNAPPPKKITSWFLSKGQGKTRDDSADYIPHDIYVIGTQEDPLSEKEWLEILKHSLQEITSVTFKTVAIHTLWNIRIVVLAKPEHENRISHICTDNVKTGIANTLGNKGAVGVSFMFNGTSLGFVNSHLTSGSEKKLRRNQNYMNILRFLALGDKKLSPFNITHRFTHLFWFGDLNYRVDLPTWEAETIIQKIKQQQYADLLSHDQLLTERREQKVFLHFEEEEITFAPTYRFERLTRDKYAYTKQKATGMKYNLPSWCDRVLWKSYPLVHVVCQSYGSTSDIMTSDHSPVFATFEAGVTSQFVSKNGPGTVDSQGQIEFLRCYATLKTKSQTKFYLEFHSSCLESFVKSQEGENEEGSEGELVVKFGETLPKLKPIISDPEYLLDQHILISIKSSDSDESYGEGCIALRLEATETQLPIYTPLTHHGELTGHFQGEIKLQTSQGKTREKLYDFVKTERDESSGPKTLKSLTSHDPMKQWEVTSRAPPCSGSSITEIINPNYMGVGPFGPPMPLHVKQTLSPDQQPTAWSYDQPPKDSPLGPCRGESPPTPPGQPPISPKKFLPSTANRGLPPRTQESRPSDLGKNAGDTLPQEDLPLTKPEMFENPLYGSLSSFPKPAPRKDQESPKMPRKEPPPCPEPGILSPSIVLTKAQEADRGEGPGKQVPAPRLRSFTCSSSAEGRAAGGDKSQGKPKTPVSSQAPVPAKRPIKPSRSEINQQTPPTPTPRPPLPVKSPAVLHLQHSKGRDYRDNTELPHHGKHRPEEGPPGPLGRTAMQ
Text: FIGS. 6A-6F: Characterizations of the soluble SHIPi compound K118. FIG. 6A: Fluorescence Polarization (FP) assay comparing SHIPi enzymatic inhibitory activity between 3AC and K118 (IC50˜13.87). In the remaining panels we show for K118 and H2O treated mice (as indicated). FIG. 6B: Representative box and whisker graph depicting serum levels of G-CSF (n=4/group); FIG. 6C: Flow cytometric analysis comparing LT-HSC (LSKFlk2−CD34−), ST-HSC (LSKFlk2−CD34+), and MPP (LSKFlk2^+CD34^+); FIG. 6D: Absolute increase in BM LT-HSC, ST-HSC, and MPP (n=5/group). Primary CRU assay illustrating global and lineage reconstitution one month post transplant; Absolute increase in repopulating units (RU). FIG. 6E: Representative contour plots for PDGFRα^+CD51^+ MSC (after excluding CD45^+, CD31^+, Lin^+ cells); FIG. 6F: Box and whiskers graph illustrating the percentage of PDGFRa^+CD51^+ MSC (n=5/group); Representative images of CFU-F assays used to measure CFU-F frequencies in BM cells of treated mice and Box and whiskers graphs indicating CFU-F frequency in treated mice. All of the above comparisons are representative of two independent experiments.
(FIG. 6A) We sought to determine if this water-soluble K118 SHIPi compound has the capacity to increase G-CSF production within the same five-day injection period as 3AC. […]

C[C@@]12CCC[C@H]1[C@@H]1CC[C@H]3C[C@@H](N)CC[C@]3(C)[C@H]1CC2.Cl [K118, 3β-amino-5α-androstane hydrochloride]
neutrophil numbers [1]: trend for increased
frequency of natural T regulatory cells (nTreg, CD4+CD25+FoxP3+) ([1]; mesenteric lymph node (mLN)): Significant increases
frequency of myeloid derived suppressor cells (MDSC, Gr1+Mac1+) ([1]; spleen): significant increase
frequency of natural T regulatory cells (nTreg, CD4+CD25+FoxP3+) ([1]; spleen): Significant increases
SHIP1 inhibitory activity compared with 3AC [2]: comparable SHIP1 inhibitory activity; also recorded: equal potency
